# Test system: arthritis induced by injection of type II collagen in the mouse
# Test: Model of arthritis induced by type II collagen in mice (CIA), hind paw plethysmometry
# Type: in vivo
# Settings: for Total hind paw volume (sum of both hind paws) / Oedema (difference in paw volume from basal values on day 21) in both hind paws: group mean n=10, listed as Group E; for percentage inhibition of oedema versus the control group: 10 mg/kg BID
# Protocol: The aim of the study was to determine the anti-inflammatory activity of the test item in a model of arthritis induced by injection of type II collagen in the mouse (CIA) and to compare the activity of two different formulations: micronized and non-micronized.
# Induction of arthritis was carried out by an initial exposure to type II bovine collagen by a subcutaneous injection at the base of the tail (induction phase).
# After a recovery time of 21 days, animals received a booster injection and approximately 4-5 weeks after the first injection there was an immune response with arthritis appearing in the extremities in the majority of the cases.
# Four experimental groups were used in the study with 10 animals in each group:
# Group D: Positive control: FCA+vehicle B.I.D.
# Group E: Micronized Test Item (Micro) 10 mg/kg B.I.D.
# Group F: Non-Micronized test item 10 mg/kg B.I.D.
# Group G: Reference item: Indomethacin 1 mg/kg Q.D.
# The dose administered to groups E and F was 10 mg/kg.
# The dose administered to group G was 1 mg/kg.
# The doses of the test and reference items were expressed as mg/Kg of compound administered to each animal.
# The test and reference items were administered in a solution of methylcellulose (0.25%: vehicle).
# The positive control group received the vehicle (methylcellulose 0.25%).
# The test and reference items, as well as the vehicle were administered orally at a dosing volume of 5 mls/kg.
# The route of administration used was oral by use of an intragastric cannula.
# On the day of start of the study each mouse was injected subcutaneously at the base of the tail with a first dose of 0.1 ml of an emulsion of bovine type II collagen (1 mg/mL) in Freund's Complete Adjuvant. Afterwards, on day 21 after this first injection, a second booster injection of type II collagen was administered to all animals. In this occasion the collagen suspension was done using Incomplete Freund's Adjuvant.
# Coinciding with the second booster injection on day 21 treatment with the test or reference items was started to the corresponding animals.
# Treatment with the test or reference items was carried out for 31 consecutive days (days 21-51 of the experimental period). Additionally, a recovery period was included at the end of the treatment period from day 52 to day 65 in order to evaluate the duration of any anti-inflammatory effect observed once dosing has been terminated.
# The animals' hind paw volume was measured by plethysmometry one day before the 1st injection of collagen, again one day before the second (booster) collagen injection (basal values) and then daily after administration of test/reference item until the end of the study. During the recovery period at the end of the study, hind paw volume was measured three times per week.
# Additionally the data was also represented graphically, depicting changes in total hind paw volume, as well as oedema (differences from basal (day 21) values).
# [1] = day 22, oral treatment days 21-51
# [2] = day 23, oral treatment days 21-51
# [3] = day 26, oral treatment days 21-51
# [4] = day 27, oral treatment days 21-51
# [5] = day 29, oral treatment days 21-51
# [6] = day 30, oral treatment days 21-51
# [7] = day 33, oral treatment days 21-51
# [8] = day 34, oral treatment days 21-51
# [9] = day 35, oral treatment days 21-51
# [10] = day 36, oral treatment days 21-51
# [11] = day 37, oral treatment days 21-51
# [12] = day 40, oral treatment days 21-51
# [13] = day 41, oral treatment days 21-51
# [14] = day 42, oral treatment days 21-51
# [15] = day 43, oral treatment days 21-51
# [16] = day 44, oral treatment days 21-51
# [17] = day 47, oral treatment days 21-51
# [18] = day 48, oral treatment days 21-51
# [19] = day 49, oral treatment days 21-51
# [20] = day 50, oral treatment days 21-51
# [21] = day 51, oral treatment days 21-51
# [22] = day 54, recovery period after treatment days 21-51
# [23] = day 56, recovery period after treatment days 21-51
# [24] = day 58, recovery period after treatment days 21-51
# [25] = day 61, recovery period after treatment days 21-51
# [26] = day 63, recovery period after treatment days 21-51
# [27] = day 65, recovery period after treatment days 21-51
compound,measurement,setting,value
"Oc1c(I)cc(I)cc1I [Micronized, 2,4,6-triiodophenol]",Total hind paw volume (sum of both hind paws),"day 0, before collagen and treatment",0.169
same,Total hind paw volume (sum of both hind paws),"day 20, basal, before treatment",0.238
same,Oedema (difference in paw volume from basal values on day 21) in both hind paws,[1],0.006
same,Total hind paw volume (sum of both hind paws),[1],0.244
same,Oedema (difference in paw volume from basal values on day 21) in both hind paws,[2],−0.010
same,Total hind paw volume (sum of both hind paws),[2],0.228
same,Oedema (difference in paw volume from basal values on day 21) in both hind paws,[3],0.014
same,Total hind paw volume (sum of both hind paws),[3],0.252
same,Oedema (difference in paw volume from basal values on day 21) in both hind paws,[4],−0.007
same,Total hind paw volume (sum of both hind paws),[4],0.231
same,Oedema (difference in paw volume from basal values on day 21) in both hind paws,[5],−0.003
same,Total hind paw volume (sum of both hind paws),[5],0.234
same,Oedema (difference in paw volume from basal values on day 21) in both hind paws,[6],−0.001
same,Total hind paw volume (sum of both hind paws),[6],0.237
same,Oedema (difference in paw volume from basal values on day 21) in both hind paws,[7],−0.007
same,Total hind paw volume (sum of both hind paws),[7],0.231
same,Oedema (difference in paw volume from basal values on day 21) in both hind paws,[8],−0.010
same,Total hind paw volume (sum of both hind paws),[8],0.228
same,Oedema (difference in paw volume from basal values on day 21) in both hind paws,[9],0.012
same,Total hind paw volume (sum of both hind paws),[9],0.250
same,Oedema (difference in paw volume from basal values on day 21) in both hind paws,[10],0.006
same,Total hind paw volume (sum of both hind paws),[10],0.244
same,Oedema (difference in paw volume from basal values on day 21) in both hind paws,[11],0.001
same,Total hind paw volume (sum of both hind paws),[11],0.239
same,Oedema (difference in paw volume from basal values on day 21) in both hind paws,[12],0.026
same,Total hind paw volume (sum of both hind paws),[12],0.263
same,Oedema (difference in paw volume from basal values on day 21) in both hind paws,[13],0.018
same,Total hind paw volume (sum of both hind paws),[13],0.256
same,Oedema (difference in paw volume from basal values on day 21) in both hind paws,[14],0.003
same,Total hind paw volume (sum of both hind paws),[14],0.241
same,Oedema (difference in paw volume from basal values on day 21) in both hind paws,[15],0.006
same,Total hind paw volume (sum of both hind paws),[15],0.244
same,Oedema (difference in paw volume from basal values on day 21) in both hind paws,[16],0.001
same,Total hind paw volume (sum of both hind paws),[16],0.238
same,Oedema (difference in paw volume from basal values on day 21) in both hind paws,[17],0.016
same,Total hind paw volume (sum of both hind paws),[17],0.254
same,percentage inhibition of oedema versus the control group,"day 48, P<0.05",68.72±8.98%
same,Oedema (difference in paw volume from basal values on day 21) in both hind paws,[18],0.016
same,Total hind paw volume (sum of both hind paws),[18],0.254
same,Oedema (difference in paw volume from basal values on day 21) in both hind paws,[19],0.023
same,Total hind paw volume (sum of both hind paws),[19],0.261
same,percentage inhibition of oedema versus the control group,"day 50, P<0.05",70.56±9.88%
same,Oedema (difference in paw volume from basal values on day 21) in both hind paws,[20],0.017
same,Total hind paw volume (sum of both hind paws),[20],0.255
same,percentage inhibition of oedema versus the control group,"day 51, highly significant",77.59±9.08%
same,Oedema (difference in paw volume from basal values on day 21) in both hind paws,[21],0.013
same,Total hind paw volume (sum of both hind paws),[21],0.251
same,Oedema (difference in paw volume from basal values on day 21) in both hind paws,[22],0.032
same,Total hind paw volume (sum of both hind paws),[22],0.270
same,Oedema (difference in paw volume from basal values on day 21) in both hind paws,[23],0.022
same,Total hind paw volume (sum of both hind paws),[23],0.259
same,percentage inhibition of oedema versus the control group,"day 56, P<0.05",71.49±7.19%
same,Oedema (difference in paw volume from basal values on day 21) in both hind paws,[24],0.030
same,Total hind paw volume (sum of both hind paws),[24],0.268
same,percentage inhibition of oedema versus the control group,"day 58, P<0.05",66.29±5.13%
same,Oedema (difference in paw volume from basal values on day 21) in both hind paws,[25],0.030
same,Total hind paw volume (sum of both hind paws),[25],0.27
same,Oedema (difference in paw volume from basal values on day 21) in both hind paws,[26],0.026
same,Total hind paw volume (sum of both hind paws),[26],0.26
same,Oedema (difference in paw volume from basal values on day 21) in both hind paws,[27],0.029
same,Total hind paw volume (sum of both hind paws),[27],0.27
same,percentage inhibition of oedema versus the control group,"day 65, P<0.05",64.95±7.58%

# Reference: patent US7935853B2, “Micronized composition of a 2,4-disubstituted phenol derivative” (priority 2008, dated 2011)
